From patent US20170354148A1, “SAFENED HERBICIDAL COMPOSITIONS CONTAINING HALAUXIFEN AND METHODS OF USE THEREOF IN BRASSICA SPECIES” (Dow AgroSciences LLC, priority 2016, published 2017)

Legend:
[1] = tested on: Spring Argentine canola (Brassica napus, BRSNS); experiment: Example 3 field trials (Canada), postemergence crop safety, visual phytotoxicity
[2] = tested on: turnip or Polish canola (Brassica rapa, BRSRR); experiment: Example 5 greenhouse trials, postemergence visual injury; conditions: BRSRR, 20-22 d

O=C(O)c1nc(Cl)ccc1Cl [Clopyralid-olamine, 2-hydroxyethanaminium 3,6-dichloro-2-pyridinecarboxylate]
0.0%: Mean % Visual Growth Inhibition ([1]; Trial 4, 13DAA1, halauxifen-methyl 10, clopyralid-olamine 150 g ae/ha, alone or mixed, line r33) | Mean % Visual Growth Inhibition ([1]; Trial 4, 13DAA1, halauxifen-methyl 10, clopyralid-olamine 150 g ae/ha, alone or mixed, line r34) | Mean % Visual Growth Inhibition ([1]; Trial 8, 7DAA1, halauxifen-methyl 10, clopyralid-olamine 150 g ae/ha, alone or mixed, line r44) | Mean % Visual Growth Inhibition ([1]; Trial 8, 7DAA1, halauxifen-methyl 10, clopyralid-olamine 150 g ae/ha, alone or mixed, line r45) | Mean % Visual Growth Inhibition ([1]; Trial 8, 15DAA1, halauxifen-methyl 5, clopyralid-olamine 150 g ae/ha, alone or mixed) | Mean % Visual Growth Inhibition ([1]; Trial 8, 15DAA1, halauxifen-methyl 10, clopyralid-olamine 150 g ae/ha, alone or mixed, line r49) | Mean % Visual Growth Inhibition ([1]; Trial 9, 6DAA1, halauxifen-methyl 5, clopyralid-olamine 150 g ae/ha, alone or mixed) | Mean % Visual Growth Inhibition ([1]; Trial 9, 23DAA1, halauxifen-methyl 2.5, clopyralid-olamine 150 g ae/ha, alone or mixed) | Mean % Visual Growth Inhibition ([1]; Trial 9, 23DAA1, halauxifen-methyl 5, clopyralid-olamine 150 g ae/ha, alone or mixed) | Mean % Visual Growth Inhibition ([1]; Trial 9, 33DAA1, halauxifen-methyl 5, clopyralid-olamine 150 g ae/ha, alone or mixed) | Mean % Visual Growth Inhibition ([1]; Trial 9, 59DAA1, halauxifen-methyl 5, clopyralid-olamine 150 g ae/ha, alone or mixed) | Mean % Visual Growth Inhibition ([1]; Trial 10, 17DAA1, halauxifen-methyl 5, clopyralid-olamine 100 g ae/ha, alone or mixed) | Mean % Visual Growth Inhibition ([1]; Trial 10, 17DAA1, halauxifen-methyl 5, clopyralid-olamine 150 g ae/ha, alone or mixed) | Mean % Visual Growth Inhibition ([1]; Trial 10, 17DAA1, halauxifen-methyl 5, clopyralid-olamine 200 g ae/ha, alone or mixed) | Mean % Visual Growth Inhibition ([1]; Trial 10, 27DAA1, halauxifen-methyl 5, clopyralid-olamine 150 g ae/ha, alone or mixed) | Mean % Visual Growth Inhibition ([1]; Trial 12, 15DAA1, halauxifen-methyl 10, clopyralid-olamine 150 g ae/ha, alone or mixed)
1.3%: Mean % Visual Growth Inhibition ([1]; Trial 3, 17DAA1, halauxifen-methyl 5, clopyralid-olamine 150 g ae/ha, alone or mixed, line r29) | Mean % Visual Growth Inhibition ([1]; Trial 3, 17DAA1, halauxifen-methyl 10, clopyralid-olamine 150 g ae/ha, alone or mixed, line r28) | Mean % Visual Growth Inhibition ([1]; Trial 5, 7DAA1, halauxifen-methyl 0.62, clopyralid-olamine 150 g ae/ha, alone or mixed) | Mean % Visual Growth Inhibition ([1]; Trial 5, 7DAA1, halauxifen-methyl 1.25, clopyralid-olamine 150 g ae/ha, alone or mixed) | Mean % Visual Growth Inhibition ([1]; Trial 5, 7DAA1, halauxifen-methyl 2.5, clopyralid-olamine 150 g ae/ha, alone or mixed) | Mean % Visual Growth Inhibition ([1]; Trial 5, 7DAA1, halauxifen-methyl 5, clopyralid-olamine 150 g ae/ha, alone or mixed) | Mean % Visual Growth Inhibition ([1]; Trial 8, 7DAA1, halauxifen-methyl 10, clopyralid-olamine 150 g ae/ha, alone or mixed, line r46)
0.8%: Mean % Visual Injury ([1]; Table 23, 49DAAA, halauxifen-methyl 5, clopyralid-olamine 150 g ae/ha, alone or mixed) | Mean % Visual Injury ([1]; Table 24, 49DAAA, halauxifen-methyl 5, clopyralid-olamine 150 g ae/ha alone, or both mixed with isoxadifen-ethyl 20 g ae/ha) | Mean % Visual Injury ([1]; Table 28, 49DAAA, halauxifen-methyl 5, clopyralid-olamine 150, quinclorac 101 g ae/ha, alone or mixed) | Mean % Visual Growth Inhibition ([1]; Trial 3, 8DAA1, halauxifen-methyl 5, clopyralid-olamine 150 g ae/ha, alone or mixed, line r23) | Mean % Visual Growth Inhibition ([1]; Trial 3, 8DAA1, halauxifen-methyl 10, clopyralid-olamine 150 g ae/ha, alone or mixed, line r22) | Mean % Visual Growth Inhibition ([1]; Trial 3, 35DAA1, halauxifen-methyl 10, clopyralid-olamine 150 g ae/ha, alone or mixed) | Mean % Visual Growth Inhibition ([1]; Trial 3, 48DAA1, halauxifen-methyl 5, clopyralid-olamine 150 g ae/ha, alone or mixed, line r32)
1.7%: Mean % Visual Growth Inhibition ([1]; Trial 10, 27DAA1, halauxifen-methyl 5, clopyralid-olamine 200 g ae/ha, alone or mixed)
1.5%: Mean % Visual Growth Inhibition ([1]; Trial 7, 8DAA1, halauxifen-methyl 5, clopyralid-olamine 150 g ae/ha, alone or mixed) | Mean % Visual Growth Inhibition ([1]; Trial 8, 7DAA1, halauxifen-methyl 10, clopyralid-olamine 150 g ae/ha, alone or mixed, line r47)
2.8%: Mean % Visual Growth Inhibition ([1]; Trial 1, 58DAA1, halauxifen-methyl 2.5, clopyralid-olamine 150 g ae/ha, alone or mixed) | Mean % Visual Growth Inhibition ([1]; Trial 2, 32DAA1, halauxifen-methyl 0.62, clopyralid-olamine 150 g ae/ha, alone or mixed) | Mean % Visual Growth Inhibition ([1]; Trial 2, 32DAA1, halauxifen-methyl 1.25, clopyralid-olamine 150 g ae/ha, alone or mixed) | Mean % Visual Growth Inhibition ([1]; Trial 2, 32DAA1, halauxifen-methyl 2.5, clopyralid-olamine 150 g ae/ha, alone or mixed) | Mean % Visual Growth Inhibition ([1]; Trial 2, 49DAA1, halauxifen-methyl 0.62, clopyralid-olamine 150 g ae/ha, alone or mixed) | Mean % Visual Growth Inhibition ([1]; Trial 2, 49DAA1, halauxifen-methyl 1.25, clopyralid-olamine 150 g ae/ha, alone or mixed) | Mean % Visual Growth Inhibition ([1]; Trial 2, 49DAA1, halauxifen-methyl 2.5, clopyralid-olamine 150 g ae/ha, alone or mixed)
2.0%: Mean % Visual Injury ([1]; Table 23, 7DAAA, halauxifen-methyl 5, clopyralid-olamine 150 g ae/ha, alone or mixed) | Mean % Visual Injury ([1]; Table 23, 32DAAA, halauxifen-methyl 5, clopyralid-olamine 150 g ae/ha, alone or mixed) | Mean % Visual Injury ([1]; Table 24, 7DAAA, halauxifen-methyl 5, clopyralid-olamine 150 g ae/ha alone, or both mixed with isoxadifen-ethyl 20 g ae/ha) | Mean % Visual Injury ([1]; Table 24, 32DAAA, halauxifen-methyl 5, clopyralid-olamine 150 g ae/ha alone, or both mixed with isoxadifen-ethyl 20 g ae/ha) | Mean % Visual Injury ([1]; Table 28, 7DAAA, halauxifen-methyl 5, clopyralid-olamine 150, quinclorac 101 g ae/ha, alone or mixed) | Mean % Visual Injury ([1]; Table 28, 32DAAA, halauxifen-methyl 5, clopyralid-olamine 150, quinclorac 101 g ae/ha, alone or mixed) | Mean % Visual Growth Inhibition ([1]; Trial 3, 48DAA1, halauxifen-methyl 5, clopyralid-olamine 150 g ae/ha, alone or mixed, line r31)
0.5%: Mean % Visual Growth Inhibition ([1]; Trial 6, 33DAA1, halauxifen-methyl 5, clopyralid-olamine 150 g ae/ha, alone or mixed) | Mean % Visual Growth Inhibition ([1]; Trial 8, 7DAA1, halauxifen-methyl 5, clopyralid-olamine 150 g ae/ha, alone or mixed) | Mean % Visual Growth Inhibition ([1]; Trial 8, 15DAA1, halauxifen-methyl 10, clopyralid-olamine 150 g ae/ha, alone or mixed, line r50)
1.0%: Mean % Visual Injury ([1]; Table 23, 17DAAA, halauxifen-methyl 5, clopyralid-olamine 150 g ae/ha, alone or mixed) | Mean % Visual Injury ([1]; Table 24, 17DAAA, halauxifen-methyl 5, clopyralid-olamine 150 g ae/ha alone, or both mixed with isoxadifen-ethyl 20 g ae/ha) | Mean % Visual Injury ([1]; Table 28, 17DAAA, halauxifen-methyl 5, clopyralid-olamine 150, quinclorac 101 g ae/ha, alone or mixed) | Mean % Visual Growth Inhibition ([1]; Trial 3, 17DAA1, halauxifen-methyl 5, clopyralid-olamine 150 g ae/ha, alone or mixed, line r27) | Mean % Visual Growth Inhibition ([1]; Trial 3, 17DAA1, halauxifen-methyl 10, clopyralid-olamine 150 g ae/ha, alone or mixed, line r26) | Mean % Visual Growth Inhibition ([1]; Trial 7, 15DAA1, halauxifen-methyl 0.62, clopyralid-olamine 150 g ae/ha, alone or mixed) | Mean % Visual Growth Inhibition ([1]; Trial 7, 15DAA1, halauxifen-methyl 5, clopyralid-olamine 150 g ae/ha, alone or mixed) | Mean % Visual Growth Inhibition ([1]; Trial 12, 27DAA1, halauxifen-methyl 5, clopyralid-olamine 150 g ae/ha, alone or mixed)
3.0%: Mean % Visual Growth Inhibition ([1]; Trial 11, 15DAA1, halauxifen-methyl 0.62, clopyralid-olamine 150 g ae/ha, alone or mixed) | Mean % Visual Growth Inhibition ([1]; Trial 11, 15DAA1, halauxifen-methyl 1.25, clopyralid-olamine 150 g ae/ha, alone or mixed)
5.5%: Mean % Visual Growth Inhibition ([1]; Trial 1, 16DAA1, halauxifen-methyl 2.5, clopyralid-olamine 150 g ae/ha, alone or mixed)
6.3%: Mean % Visual Growth Inhibition ([1]; Trial 1, 30DAA1, halauxifen-methyl 2.5, clopyralid-olamine 150 g ae/ha, alone or mixed)
0%: % Visual Injury Obs ([2]; 50 g ai/ha alone) | % Visual Injury Obs ([2]; 100 g ai/ha alone) | % Visual Injury Obs ([2]; 200 g ai/ha alone)
2.5%: Mean % Visual Growth Inhibition ([1]; Trial 11, 7DAA1, halauxifen-methyl 5, clopyralid-olamine 150 g ae/ha, alone or mixed)
0.3%: Mean % Visual Growth Inhibition ([1]; Trial 3, 8DAA1, halauxifen-methyl 5, clopyralid-olamine 150 g ae/ha, alone or mixed, line r25) | Mean % Visual Growth Inhibition ([1]; Trial 3, 8DAA1, halauxifen-methyl 10, clopyralid-olamine 150 g ae/ha, alone or mixed, line r24)
